Data on 18 compounds can be found in patent US9901577B2, “Oxoquinazolinyl-butanamide derivatives” (MERCK PATENT GMBH, priority 2013, dated 2018).

Where two headings read alike, the source gives them in different places.

One experiment addresses T1, PARP-1 (Homo sapiens, UniProt P09874).
T1 construct: purchased Enzo Life Sciences GmbH, Lörrach, Germany
Briefly: PARP-1 autoparsylation assay (HTRF). Format: biochemical. The note with it: His-tagged Parp-1, autoparsylation. In general terms: TR-FRET usually uses a lanthanide donor and a delayed reading to cut background.

A further experiment deals with T2, TNKS1 (Homo sapiens, UniProt O95271).
T2 construct: GST-tagged Tnks-1 (1023-1327 aa, prepared in-house); made in house
Briefly: TNKS1 activity ELISA (autoparsylation assay). The experiment is classed as biochemical. How it is done: (§1) Description of the TNKS1 and TNKS2 ELISA Assay
(§2) Biochemical Activity Testing of TNKS 1 and 2: Activity ELISA (Autoparsylation Assay)
(§3) For analysis of autoparsylation activity of TNKS 1 and 2 an activity ELISA iss performed: In the first step GST tagged TNKS is captured on a Glutathione coated plate. Then the activity assay with biotinylated NAD is performed in the absence/presence of the compounds. During the enzymatic reaction GST tagged TNKS transfers biotinylated ADP-ribose to itself from biotinylated NAD as co-substrate. For the detection streptavidin-HRP conjugate is added that binds to the biotinylated TNKS and is thereby captured to the plates. The amount of biotinylated resp. autoparsylated TNKS is detected with a luminescence substrate for HRP. The level of the luminescence signal correlates directly with the amount of autoparsylated TNKS and therefore with activity of TNKS.
(§4) The activity ELISA is performed in 384 well Glutathione coated microtiter plates (Express capture Glutathione coated plate, Biocat, Heidelberg, Germany). The plates are pre-equilibrated with PBS. […] The plates are washed 3 times with PBS-Tween-20. The wells are blocked by incubation at room temperature for 20 minutes with 50 μl blocking buffer (PBS, 0.05% Tween-20, 0.5% BSA). Afterwards the plates are washed 3 times with PBS-Tween-20. […] The reaction is stopped by 3 times washing with PBS-Tween-20. For the detection 50 μl of 20 ng/μl Streptavidin, HRP conjugate (MoBiTec, Göttingen, Germany) in PBS/0.05% Tween-20/0.01% BSA are added and the plates are incubated for 30 minutes at room temperature. After three times washing with PBS-Tween-20 50 μl of SuperSignal ELISA Femto Maximum sensitivity substrate solution (ThermoFisherScientific (Pierce), Bonn, Germany) are added. Following a 1 minute incubation at room temperature luminescence signals are measured with an Envision multimode reader (Perkin Elmer LAS Germany GmbH) at 700 nm. The full value used is the inhibitor-free reaction. […] The inhibitory values (IC50) are determined using either the program Symyx Assay Explorer® or Condosseo® from GeneData.
For orientation: In an ELISA, binding on a coated surface is turned into a signal by an enzyme label.

For a further experiment, the target named is T3, TNKS2 (Homo sapiens, UniProt Q9H2K2).
T3 construct: GST-tagged Tnks-2 (873-1166 aa, prepared in-house); made in house
Briefly: TNKS2 activity ELISA (autoparsylation assay). The experiment is classed as biochemical. How it is done: as §1, §2, §3, §4

For the next experiment, the system named is T4, Tankyrase.
T4 construct: TNKS cellular assay; other: DLD1 cells, Axin2 increase, 24 hours
In words: Measurement of cellular inhibition of Tankyrase (Axin2 level in DLD1 cells, Luminex based assay). Format: cell-based. The conditions noted are these: read-out: EC50 [M] TNKS cellular assay; DLD1 cells, Axin2 increase, 24 hours. Here is the method: Measurement of Cellular Inhibition of Tankyrase
Cells of the colon carcinoma cell line DLD1 are plated in 96 well plates with 1.5×10^4 cells per well. Next day, cells are treated with a serial dilution of test compound in seven steps as triplicates with a final DMSO concentration of 0.3%. […] The amount of isolated Axin2 protein is determined in a Luminex^200 machine (Luminex Corporation) according to the manufacturer's instruction by counting 100 events per well. […] As controls cells are treated with solvent alone (neutral control) and with a Tankyrase reference inhibitor IWR-2 (3E-06 M) which refers as control for maximum increase of Axin2. For analysis, the obtained data are normalized against the untreated solvent control and fitted for determination of the EC50 values using the Assay Explorer software (Accelrys).

The mark [1] stands for this setting: GST-tagged Tnks-1, read-out: IC50 [M] TNKS1 ELISA.
Where [2] appears, read: GST-tagged Tnks-2, read-out: IC50 [M] TNKS2 ELISA.

T2 sequence (O95271 1023-1327): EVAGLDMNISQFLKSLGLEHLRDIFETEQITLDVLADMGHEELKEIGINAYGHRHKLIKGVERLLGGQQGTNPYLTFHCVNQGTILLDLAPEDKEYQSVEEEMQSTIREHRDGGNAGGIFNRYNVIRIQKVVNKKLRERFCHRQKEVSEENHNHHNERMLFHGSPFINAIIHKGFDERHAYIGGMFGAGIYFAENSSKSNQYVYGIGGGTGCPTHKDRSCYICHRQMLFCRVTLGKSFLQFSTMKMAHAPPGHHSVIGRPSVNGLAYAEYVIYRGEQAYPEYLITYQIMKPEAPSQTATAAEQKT
T3 sequence (Q9H2K2 873-1166): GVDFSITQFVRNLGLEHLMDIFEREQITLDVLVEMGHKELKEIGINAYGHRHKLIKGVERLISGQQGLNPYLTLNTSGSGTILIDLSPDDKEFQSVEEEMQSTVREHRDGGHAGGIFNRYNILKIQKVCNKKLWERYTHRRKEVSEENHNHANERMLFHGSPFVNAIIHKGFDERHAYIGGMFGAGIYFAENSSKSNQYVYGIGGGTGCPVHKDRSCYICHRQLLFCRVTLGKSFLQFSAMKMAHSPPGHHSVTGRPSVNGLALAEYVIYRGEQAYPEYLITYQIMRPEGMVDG
T1 sequence (P09874 whole entry): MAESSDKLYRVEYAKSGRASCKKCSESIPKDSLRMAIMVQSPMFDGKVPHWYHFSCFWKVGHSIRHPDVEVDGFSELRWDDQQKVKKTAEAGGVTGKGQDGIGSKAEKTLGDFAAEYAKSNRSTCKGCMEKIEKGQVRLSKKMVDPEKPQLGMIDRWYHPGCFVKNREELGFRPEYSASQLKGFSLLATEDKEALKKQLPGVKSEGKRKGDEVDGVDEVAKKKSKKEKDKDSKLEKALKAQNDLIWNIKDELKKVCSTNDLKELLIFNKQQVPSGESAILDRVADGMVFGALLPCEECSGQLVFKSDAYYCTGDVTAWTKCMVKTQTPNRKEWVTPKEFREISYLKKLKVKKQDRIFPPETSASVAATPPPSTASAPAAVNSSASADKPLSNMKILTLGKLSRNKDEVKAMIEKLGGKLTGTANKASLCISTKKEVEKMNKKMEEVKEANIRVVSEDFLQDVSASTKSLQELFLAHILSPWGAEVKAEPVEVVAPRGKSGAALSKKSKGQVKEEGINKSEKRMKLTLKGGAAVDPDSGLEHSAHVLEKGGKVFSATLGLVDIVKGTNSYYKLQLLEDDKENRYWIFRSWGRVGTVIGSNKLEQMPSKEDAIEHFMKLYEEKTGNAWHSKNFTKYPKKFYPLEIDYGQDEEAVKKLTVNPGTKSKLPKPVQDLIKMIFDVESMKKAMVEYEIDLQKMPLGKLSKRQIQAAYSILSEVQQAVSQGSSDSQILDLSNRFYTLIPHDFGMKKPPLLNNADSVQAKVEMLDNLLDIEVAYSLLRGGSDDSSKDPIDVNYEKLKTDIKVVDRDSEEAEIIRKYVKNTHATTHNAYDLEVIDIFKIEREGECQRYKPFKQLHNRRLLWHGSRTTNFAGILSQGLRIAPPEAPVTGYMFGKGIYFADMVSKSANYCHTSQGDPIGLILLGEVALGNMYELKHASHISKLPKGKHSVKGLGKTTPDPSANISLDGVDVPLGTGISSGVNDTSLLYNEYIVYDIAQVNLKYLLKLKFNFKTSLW

Consider `COc1ccc(C(=O)C2CCN(C(=O)CCCc3nc4ccccc4c(=O)[nH]3)CC2)cn1` [Compound A16, 2-{4-[4-(6-Methoxy-pyridine-3-carbonyl)-piperidin-1-yl]-4-oxo-butyl}-3H-quinazolin-4-one], for which the IC50 (in general, the point on the concentration scale where inhibition reaches its midpoint) against PARP-1 is 2700 nM; on TNKS1 (setting [1]), 1.1e-09 M; on TNKS2 (setting [2]) it was 7.5e-10 M. The EC50 (commonly the concentration giving half of the maximal effect) in the experiment with Tankyrase turned out to be 1e-08 M.
In the case of `N#Cc1ccc(OC2CCN(C(=O)CCCc3nc4ccccc4c(=O)[nH]3)CC2)cc1` [Compound A17, 4-{1-[4-(4-Oxo-3,4-dihydro-quinazolin-2-yl)-butyryl]-piperidin-4-yloxy}-benzonitrile], the concentration for half-maximal inhibition (IC50) on PARP-1 is 680 nM; against TNKS1, 1.5e-07 M; on TNKS2 it was 7.9e-08 M. In addition, the 50% effective concentration (EC50) with Tankyrase was 7.2e-07 M.
For `O=C(c1ccc(F)cc1)C1CCN(C(=O)CCCc2nc3ccccc3c(=O)[nH]2)CC1` [Compound A18, 2-{4-[4-(4-Fluoro-benzoyl)-piperidin-1-yl]-4-oxo-butyl}-3H-quinazolin-4-one], the IC50 is 2100 nM against PARP-1, 7e-10 M at TNKS1 (setting [1]) and 6.1e-10 M at TNKS2 (setting [2]). In addition, the EC50 in the experiment on Tankyrase stood at 2.1e-08 M.
In the same order, the values of `COc1ccc(C(=O)C2CCN(C(=O)CCCc3nc4ccc(F)cc4c(=O)[nH]3)CC2)cc1` [Compound A19, 6-Fluoro-2-{4-[4-(4-methoxy-benzoyl)-piperidin-1-yl]-4-oxo-butyl}-3H-quinazolin-4-one] are 710 nM, 3.1e-10 M, 3.2e-10 M and 8.3e-10 M.
As for `COc1ccc(C(=O)C2CCN(C(=O)CCCc3nc4ccc(F)cc4c(=O)[nH]3)CC2)cc1F` [Compound A20, 6-Fluoro-2-{4-[4-(3-fluoro-4-methoxy-benzoyl)-piperidin-1-yl]-4-oxo-butyl}-3H-quinazolin-4-one], the IC50 amounted to 960 nM at PARP-1, 2.5e-10 M at TNKS1 (setting [1]) and 2.5e-10 M on TNKS2 (setting [2]). Also, the EC50 with Tankyrase came out at 3.4e-09 M.
As for `COc1ccc(C(=O)C2CCN(C(=O)CCCc3nc4ccc(F)cc4c(=O)[nH]3)CC2)cn1` [Compound A21, 6-Fluoro-2-{4-[4-(6-methoxy-pyridine-3-carbonyl)-piperidin-1-yl]-4-oxo-butyl}-3H-quinazolin-4-one], the values for the IC50 at PARP-1, at TNKS1 (setting [1]) and at TNKS2 (setting [2]) were 550 nM, 7.5e-10 M and 6.8e-10 M, respectively. Moreover, the EC50 in the experiment with Tankyrase came to 7.8e-09 M.
For the compound `N#Cc1ccc(OC2CCN(C(=O)CCCc3nc4ccc(F)cc4c(=O)[nH]3)CC2)cc1` [Compound A22, 4-{1-[4-(6-Fluoro-4-oxo-3,4-dihydro-quinazolin-2-yl)-butyryl]-piperidin-4-yloxy}-benzonitrile], the IC50 against PARP-1 was found to be 640 nM; on TNKS1 (setting [1]) it was 1.3e-07 M; at TNKS2 (setting [2]) it was 7.6e-08 M. Besides, the EC50 in the experiment with Tankyrase amounted to 5.6e-07 M.
For the compound `COc1ccc(C(=O)C2CCN(C(=O)CCCc3nc4ccc(F)cc4c(=O)[nH]3)CC2)cc1C` [Compound A24, 6-Fluoro-2-{4-[4-(4-methoxy-3-methyl-benzoyl)-piperidin-1-yl]-4-oxo-butyl}-3H-quinazolin-4-one], the IC50 was 1000 nM against PARP-1, 1.6e-10 M at TNKS1 (setting [1]) and 1.4e-10 M on TNKS2 (setting [2]). The EC50 with Tankyrase came to 1e-09 M.
In the same order, the values of `COc1ccc(C(=O)C2CCN(C(=O)CCCc3nc4c(F)cccc4c(=O)[nH]3)CC2)cc1` [Compound A25, 8-Fluoro-2-{4-[4-(4-methoxy-benzoyl)-piperidin-1-yl]-4-oxo-butyl}-3H-quinazolin-4-one] are 2100 nM, 2.8e-10 M, 2e-10 M and 2.1e-09 M.
`COc1ccc(C(=O)C2CCN(C(=O)CCCc3nc4c(F)cccc4c(=O)[nH]3)CC2)cc1F` [Compound A26, 8-Fluoro-2-{4-[4-(3-fluoro-4-methoxy-benzoyl)-piperidin-1-yl]-4-oxo-butyl}-3H-quinazolin-4-one]: the concentration for half-maximal inhibition (IC50) against PARP-1 turned out to be 1300 nM; on TNKS1 (setting [1]), 3e-10 M; on TNKS2 (setting [2]) it was 2e-10 M. The EC50 in the experiment on Tankyrase was 1.3e-09 M.
As for `N#Cc1ccc(OC2CCN(C(=O)CCCc3nc4c(F)cccc4c(=O)[nH]3)CC2)cc1` [Compound A27, 4-{1-[4-(8-Fluoro-4-oxo-3,4-dihydro-quinazolin-2-yl)-butyryl]-piperidin-4-yloxy}-benzonitrile], the IC50 against PARP-1 turned out to be 1.3 nM; against TNKS1, 1.5e-07 M; at TNKS2, 8.6e-08 M. In addition, the EC50 in the experiment on Tankyrase is 4.4e-07 M.
In the case of `O=C(c1ccc(F)cc1)C1CCN(C(=O)CCCc2nc3c(F)cccc3c(=O)[nH]2)CC1` [Compound A28, 8-Fluoro-2-{4-[4-(4-fluoro-benzoyl)-piperidin-1-yl]-4-oxo-butyl}-3H-quinazolin-4-one], the IC50 on PARP-1 came to 3300 nM; on TNKS1 (setting [1]) it was 8.7e-10 M; at TNKS2 (setting [2]) it was 6.2e-10 M. Further, in the experiment on Tankyrase, the EC50 stood at 4.2e-08 M.
For `COc1ccc(C(=O)C2CCN(C(=O)CCCc3nc4c(F)cccc4c(=O)[nH]3)CC2)cc1C` [Compound A29, 8-Fluoro-2-{4-[4-(4-methoxy-3-methyl-benzoyl)-piperidin-1-yl]-4-oxo-butyl}-3H-quinazolin-4-one], in that order: 2600 nM, 1.2e-10 M, less than 1e-10 M and 6.2e-10 M.
As for `Nc1ncc(C2CCN(C(=O)CCCc3nc4ccccc4c(=O)[nH]3)CC2)cc1-c1ncccn1` [Compound A30, 2-[4-(6-Amino-5-pyrimidin-2-yl-3′,4′,5′,6-tetrahydro-2′H-[3,4]bipyridinyl-1′-yl)-4-oxo-butyl]-3H-quinazolin-4-one], the IC50 amounted to 670 nM against PARP-1, 4.1e-10 M against TNKS1 and 3e-10 M against TNKS2. Further, the EC50 in the experiment with Tankyrase was determined as 1.2e-09 M.
For the compound `N#Cc1cc(C2CCN(C(=O)CCCc3nc4ccc(F)cc4c(=O)[nH]3)CC2)cnc1N` [Compound A31, 6-Amino-1′-[4-(6-fluoro-4-oxo-3,4-dihydro-quinazolin-2-yl)-butyryl]-1′,2′,3′,4′,5′,6′-hexahydro-[3,4]bipyridinyl-5-carbonitrile], the IC50 at PARP-1 is 1400 nM; on TNKS1 (setting [1]), 2.1e-09 M; on TNKS2 (setting [2]), 9.5e-10 M. For the same compound, in the experiment with Tankyrase, the EC50 turned out to be 2.9e-09 M.
In the same order, the values of `Nc1ncc(C2CCN(C(=O)CCCc3nc4ccc(F)cc4c(=O)[nH]3)CC2)cc1-c1ncccn1` [Compound A32, 2-[4-(6-Amino-5-pyrimidin-2-yl-3′,4′,5′,6′-tetrahydro-2′H-[3,4]bipyridinyl-1′-yl)-4-oxo-butyl]-6-fluoro-3H-quinazolin-4-one] are 600 nM, 3.2e-10 M, 3.4e-10 M and 2.3e-09 M.
In the same order, the values of `COc1ccc(C(=O)C2CCN(C(=O)CCCc3nc4c(F)cccc4c(=O)[nH]3)CC2)cn1` [Compound A33, 8-Fluoro-2-{4-[4-(6-methoxy-pyridine-3-carbonyl)-piperidin-1-yl]-4-oxo-butyl}-3H-quinazolin-4-one] are 5000 nM, 1.3e-09 M, 5.2e-10 M and 1.3e-08 M.
With `N#Cc1cc(C2CCN(C(=O)CCCc3nc4c(F)cccc4c(=O)[nH]3)CC2)cnc1N` [Compound A34, 6-Amino-1′-[4-(8-fluoro-4-oxo-3,4-dihydro-quinazolin-2-yl)-butyryl]-1′,2′,3′,4′,5′,6′-hexahydro-[3,4]bipyridinyl-5-carbonitrile], the IC50 at PARP-1 came to 2700 nM; at TNKS1 (setting [1]), 3.3e-09 M; at TNKS2 (setting [2]) it was 1.6e-09 M. In addition, the EC50 with Tankyrase is 3.4e-08 M.
